A short description of the data set: method code SF-AS, from DOI: 10.1002/zfch.19780180919.

SMILES strings stand for the structures.

As for `COc1ccccc1C(=O)NN`, the logP was 0.25.

`Cc1ccc(C(=O)NN)cc1` came in with a logP of 0.73.

`NNC(=O)c1cccc(Br)c1` displayed a logP of 1.26.

As to `COc1ccc(C(=O)NN)cc1`, the logP was found to be 0.25.

`COc1cccc(C(=O)NN)c1`: the logP stood at 0.4.

The compound `NNC(=O)c1cccc(N)c1` showed a logP of -0.86.

On to `NNC(=O)c1ccccc1N`, for which the logP was -0.18.

`NNC(=O)c1cccc(I)c1` registered a logP of 1.53.

`NNC(=O)c1cccc(Cl)c1`: the logP was found to be 1.18.

Consider `NNC(=O)c1ccc(Br)cc1`, for which the logP came to 1.28.

As to `Cc1ccccc1C(=O)NN`, the logP was found to be 0.22.

`NNC(=O)c1ccc(I)cc1` came in with a logP of 1.55.

Compound `NNC(=O)c1ccc(Cl)cc1` displayed a logP of 1.12.

`NNC(=O)c1ccccc1[N+](=O)[O-]` showed a lipophilicity (logP) of -0.54.

As to `NNC(=O)c1ccccc1Br`, the logP is 0.26.

Take `NNC(=O)c1cccc(O)c1`: the logP is -0.08.

In turn, `NNC(=O)c1ccc([N+](=O)[O-])cc1` gave a logP of 0.35.

For `NNC(=O)c1ccccc1I`, the logP is 0.47.

The compound `NNC(=O)c1ccccc1O` returned a logP of 0.6.

As for `NNC(=O)c1ccc(O)cc1`, the log partition coefficient (logP) is -0.33.

Compound `NNC(=O)c1cccc([N+](=O)[O-])c1` yielded a lipophilicity (logP) of 0.23.

`NNC(=O)c1ccccc1Cl`: the logP came out at 0.14. This logP and that of the compound before are within 0.2 log units of each other.

Regarding `Cc1cccc(C(=O)NN)c1`, the logP was 0.74.

On to `NNC(=O)c1ccc(N)cc1`, for which the logP was -0.75.

The logP is the decadic logarithm of the partition coefficient of the neutral form, usually between octanol and water.
